Common to all, as to type: cell-based, Human
The subject of data set [1] is A2780 ovarian cancer cell line. Briefly: in vitro proliferation/viability, combination Compound A and standard of care agents (CellTiter-Glo, CalcuSyn CI). The settings on record: combination partner SOC with Compound A, simultaneous 72 h. How it is done:
(§1) A 2- or 3-fold serial dilution series of concentrated Compound A/carboplatin combinations was prepared, in which the concentration ratio of the two drugs was fixed and equal to […] ratio of Compound A and carboplatin determined in single agent titrations described above. Corresponding single agent dilution series of concentrated Compound A and carboplatin were also prepared. The three dilution series were then tested in the proliferation/viability assay as described above. The data were analyzed using CalcuSyn software (BIOSOFT) that calculates combination index (CI) for each combination of Compound A/carboplatin as described below. Combination index values were generated by inserting the interpolated values into the mutually exclusive equation derived by Chou and Talalay.
(§2) Synergistic interaction between compounds was analyzed by the median effect method described by Chou and Talalay (Adv. Enzyme Regul. 22: 27-55, 1984). Studies were first conducted to determine the potency of Compound A or combination partner (Drug-A) as single agent in inhibiting proliferation/viability of tumor cells. The IC50 values of each single agent were determined by fitting data to four parameter dose-response equation. Percent inhibition of cell growth was calculated relative to vehicle treated control wells. […] Y starts at Bottom and goes to Top with a sigmoid shape.
(§3) The fixed ratio experimental design was then used to compare of various Compound A/Drug-A combinations and corresponding single agent treatments.
(§4) D1 and D2 are known from the composition of the combination and D1c and D2c can be calculated from the equation; Dc=Dm*[fa/(1−fa)]^1/m where Dm is the concentration of drugs giving 50% effect, fa is the fraction affected, and m is the slope from the median effect plot of log (fa/fu) where fu is the fraction unaffected versus log (D). A CI equal to 1 signifies an additive effect, less than 1 a synergistic effect, and greater than 1 an antagonistic effect.
Human ovarian cancer cell (A2780) was obtained from the European Collection of Cell Culture (ECACC). A2780 cells were cultured in RPMI-1640 containing heat-inactivated 10% fetal bovine serum (FBS) in a humidified incubator at 37° C. in 5% CO2.
(§5) The cells were seeded at 2,000 cells/well in RPMI 1640 supplemented with 10% heat-inactivated FBS in 96 well tissue culture plates (CORNING #3340) and incubated at 37° C. in 5% CO2 overnight. On the next day Compound A, doxorubicin or the combination of the two agents was added as a 2-fold dilution series in RPMI containing 1% DMSO. The final DMSO concentration in each assay was 0.1%. The plates were then incubated at 37° C. in 5% CO2 for 72 hours. The number of viable cells was measured using CellTiter-Glo cell viability assay (Promega #G7571). The luminiscence signal was read using a ARVO-SX multimode plate reader (Perkin-Elmer). Combination index was determined by the same method as described in section T1.3.
as §5, with “camptothecin” for “doxorubicin”
The cells were seeded at 2,000 cells/well in RPMI 1640 supplemented with 10% heat-inactivated FBS in 96 well tissue culture plates (CORNING #3340) and incubated at 37° C. in 5% CO2 overnight. On the next day Compound A, 5-FU or the combination of the two agents was added as a 2-fold dilution series in RPMI containing 1% DMSO.

The subject of data set [2] is Caspase-3/7. Put plainly: Caspase-3/7 assay (Caspase-Glo 3/7) in A2780 cells, Compound A plus cytotoxic agents. How it is done:
A2780 ovarian cancer cell line was cultured at 37° C. in complete medium (RPMI-1640 supplemented with 10% heat-inactivated FBS) and plated at 2,000 cells/well in 96 well assay plates (CORNING #3340). […] Then, Compound A and cytotoxic agents were added to each well and incubated at 37° C. in 5% CO2 for 24 hours. […] Medium was removed and 50 ul of Caspase-Glo reagents were added to wells. […] Relative Caspase-3/7 induction level was then calculated as the fold increase compared with the level of caspase-3/7 induction in the non-treatment group.

The subject of the next data set is NCI-H460 NSCLC cell line. Briefly: in vitro proliferation/viability, combination Compound A and standard of care agents (CellTiter-Glo, CalcuSyn CI). The settings on record: combination partner SOC with Compound A, simultaneous 72 h. As for the experimental part: as §1, §2, §3, §4
Human non-small cell lung cancer cell (NCI-H460) was obtained from the American Type Culture Collection (ATCC). NCI-H460 cells were cultured in RPMI-1640 containing heat-inactivated 10% fetal bovine serum (FBS) in a humidified incubator at 37° C. in 5% CO2.
as §5, with “NCI-H460 NSCLC cell line was” for “The cells were”
as §5, with “NCI-H460 NSCLC cell line was” for “The cells were”, “camptothecin” for “doxorubicin”
NCI-H460 NSCLC cell line was seeded at 2,000 cells/well in RPMI 1640 supplemented with 10% heat-inactivated FBS in 96 well tissue culture plates (CORNING #3340) and incubated at 37° C. in 5% CO2 overnight.

For data set [3], the system named is Caspase-3/7. Briefly: Caspase-3/7 assay (Caspase-Glo 3/7) in NCI-H460 cells, Compound A plus cytotoxic agents.
[4] abbreviates: combination partner SOC with Compound A 62.5 nM.
Setting [5] is: combination partner SOC with Compound A 250 nM.
[6] abbreviates: combination partner SOC with Compound A 1000 nM.

Consider `CC[C@@]1(O)C(=O)OCc2c1cc1n(c2=O)Cc2cc3ccccc3nc2-1` [Camptothecin, 4-ethyl-4-hydroxy-1H-pyrano[3′,4′:6,7]indolizino[1,2-b]quinoline-3,14-(4H,12H)-dione], for which the “Combination index for above fractional inhibition, ED50” value in data set [1] is reported as 0.56; in the data set with NCI-H460 NSCLC cell line, 0.39. Further, the “Combination index for above fractional inhibition, ED75” value is 0.40 in data set [1] and 0.39 with NCI-H460 NSCLC cell line. Moreover, the results for the “Combination index for above fractional inhibition, ED90” value (in data set [1]; in the data set on NCI-H460 NSCLC cell line) were 0.29 and 0.63, respectively. Further, the “Caspase-3/7 fold induction at 24 h (fold of DMSO control)” value (shortened to “Caspase-3/7 fold induction at 24 h”) is on record as 1.9 fold of DMSO control in the data set on Caspase-3/7 [2] (setting [4]); 2.6 fold of DMSO control in the data set on Caspase-3/7 [2] (setting [5]); 4.0 fold of DMSO control with Caspase-3/7 [2] (setting [6]); 1.2 fold of DMSO control in the data set on Caspase-3/7 [3] (setting [4]); 1.4 fold of DMSO control with Caspase-3/7 [3] (setting [5]); 1.7 fold of DMSO control in the data set on Caspase-3/7 [3] (setting [6]).

As to `O=c1[nH]cc(F)c(=O)[nH]1` [Compound 5-FU, 5-fluorouracil], the “Combination index for above fractional inhibition, ED50” value in data set [1] is 0.68; in the data set on NCI-H460 NSCLC cell line, 0.35. The “Combination index for above fractional inhibition, ED75” value in data set [1] is 0.54; in the data set on NCI-H460 NSCLC cell line it was 0.30. Besides, the “Combination index for above fractional inhibition, ED90” value in data set [1] is 0.53; in the data set on NCI-H460 NSCLC cell line it was 0.37. In addition, the “Caspase-3/7 fold induction at 24 h” value in the data set on Caspase-3/7 [2] (setting [4]) was 1.5 fold of DMSO control; in the data set on Caspase-3/7 [2] (setting [5]) it was 1.7 fold of DMSO control; in the data set with Caspase-3/7 [2] (setting [6]), 2.5 fold of DMSO control; with Caspase-3/7 [3] (setting [4]), 1.2 fold of DMSO control; in the data set on Caspase-3/7 [3] (setting [5]), 1.3 fold of DMSO control; with Caspase-3/7 [3] (setting [6]) it was 1.4 fold of DMSO control.

Take `COc1cccc2c1C(=O)c1c(O)c3c(c(O)c1C2=O)C[C@@](O)(C(=O)CO)C[C@@H]3O[C@H]1C[C@H](N)[C@H](O)[C@H](C)O1` [Doxorubicin, (2S,4S)-4-(3-amino-2,3,6-trideoxy-α-L-lyxo-hexopyranosyloxy)-2,5,12-trihydroxy-2-hydroxyacetyl-7-methoxy-1,2,3,4-tetrahydrotetracene-6,11-dione]: the “Combination index for above fractional inhibition, ED50” value is listed as 0.70 in data set [1] and 0.27 in the data set with NCI-H460 NSCLC cell line. Also, the figures for the “Combination index for above fractional inhibition, ED75” value (in data set [1]; with NCI-H460 NSCLC cell line) were 0.43 and 0.18, respectively. Further, the “Combination index for above fractional inhibition, ED90” value was 0.27 in data set [1] and 0.17 in the data set with NCI-H460 NSCLC cell line. Moreover, the “Caspase-3/7 fold induction at 24 h” value is reported as 1.6 fold of DMSO control in the data set on Caspase-3/7 [2] (setting [4]); 2.8 fold of DMSO control in the data set with Caspase-3/7 [2] (setting [5]); 4.1 fold of DMSO control in the data set with Caspase-3/7 [2] (setting [6]); 1.3 fold of DMSO control with Caspase-3/7 [3] (setting [4]); 1.7 fold of DMSO control in the data set with Caspase-3/7 [3] (setting [5]); 2.8 fold of DMSO control in the data set on Caspase-3/7 [3] (setting [6]).

Source of the values: patent US8481503B2, “Combination cancer therapy with an AKT inhibitor and other anticancer agents” (Merck Sharp & Dohme Corp., priority 2009, dated 2013).
